Measurements taken from patent US7851650B2, “Compounds for treating inflammation and pain” (Olatec Industries LLC, priority 2009, dated 2010).

System: arachidonic acid induced ear swelling
Test: topical arachidonic acid induced ear swelling model in mice
Assay type: in vivo
Settings: male ICR mice, applied 30 min before and 15 min after arachidonic acid, active compound 2 mg/ear x 2, indomethacin 3 mg/ear x 2, relative to lauryl lactate vehicle
Description: Male ICR mice weighing 22±2 g were used in the experiment. Arachidonic acid (2 mg in 20 μL acetone) was applied topically onto the anterior and posterior surfaces of the right ear of test animals. […] Ear swelling was then measured using a Dyer model micrometer gauge at 60, 90 and 120 minutes after arachidonic acid induction of ear edema as an index of inflammation.

Structure (SMILES) | %, ear swelling inhibition after arachidonic acid, 60 min. [%] | %, ear swelling inhibition after arachidonic acid, 90 min. [%] | %, ear swelling inhibition after arachidonic acid, 120 min. [%]
CS(=O)(=O)CCC(NCl)C(=O)O (stereo not drawn) [Active compound/lauryl lactate, 2-N chloro-4-methylsulfonyl-butyric acid] | 33 | 31 | 34
COc1ccc2c(c1)c(CC(=O)O)c(C)n2C(=O)c1ccc(Cl)cc1 [Indomethacin/lauryl lactate, indomethacin] | 71 | 65 | 70
